Test results reported in US7402595B2, “JNK inhibitor” (Takeda Pharmaceutical Company Limited, priority 2002, dated 2008).

How the values were obtained:
[1] = biological target: T1, human JNK1 (Homo sapiens, UniProt P45983); experiment: Measurement of JNK inhibitory activity (32P uptake into cJUN by active JNK1); type: biochemical; settings: 2.5 μM ATP, 30° C., 60 min
T1 construct: His6 (Met-Ala-His6, read from primer JNK1-U) (N); made in house; host or cells: Sf-21 insect cells (baculovirus BAC-HJNK1 co-infected with BAC-caMKK7); cJUN substrate from E. coli JM109
T1 sequence (P45983 1-384 isoform P45983-2): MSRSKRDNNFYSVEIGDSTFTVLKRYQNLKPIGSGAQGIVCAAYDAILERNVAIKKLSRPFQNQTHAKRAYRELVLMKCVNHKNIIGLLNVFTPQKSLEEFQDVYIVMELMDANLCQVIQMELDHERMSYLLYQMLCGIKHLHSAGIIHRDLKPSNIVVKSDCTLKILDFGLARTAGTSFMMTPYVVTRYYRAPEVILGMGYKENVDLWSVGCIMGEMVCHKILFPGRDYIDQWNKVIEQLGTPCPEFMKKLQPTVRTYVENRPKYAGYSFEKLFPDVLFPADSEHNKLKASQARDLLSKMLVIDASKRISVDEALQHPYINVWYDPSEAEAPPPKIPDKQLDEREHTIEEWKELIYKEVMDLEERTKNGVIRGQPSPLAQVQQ
Protocol: (4) Preparation of Active JNK1
Sf-21 cells were seeded to achieve 1×10^6 cells/ml in 100 ml of Sf-900 II SFM medium (GIBCO BRL) containing 10% fetal calf serum and cultured at 27° C. for 24 hrs. The recombinant baculovirus virus stock BAC-HJNK1 and BAC-caMKK7 were added by 0.2 ml each, and the cells were further cultured for 60 hrs. The cells were separated from the culture solution by centrifugation (3000 rpm, 10 min.) and washed twice with PBS. The cells were suspended in 10 ml of Lysis buffer (25 mM HEPES (pH 7.5), 1% Triton X, 130 mM NaCl, 1 mM EDTA, 1 mM DTT, 25 mM β-glycerophosphate, 20 μM leupeptin, 1 mM APMSF, 1 mM sodium orthovanadate) and ruptured by 4 times of treatment with a homogenizer (POLYTRON) at 20000 rpm, 30 seconds each. Active JNK1 was purified from a supernatant obtained by centrifugal separation (40000 rpm, 45 min.) by the use of Anti-FLAG M2 Affinity Gel (Sigma).
(5) Preparation of Recombinant cJUN
Escherichia coli JM109 (Toyobo Co., Ltd.) was transformed with a plasmid pGEJUN to give ampicillin resistant pGEJUN/JM109. The pGEJUN/JM109 strain was cultured overnight in 150 ml of LB medium (10 g/l tripton, 5 g/l yeast extract, 10 g/l sodium chloride) containing 50 μg/ml ampicillin at 200 rpm, 37° C. The culture solution (15 ml) was added to a fresh LB medium (150 ml) and cultured at 37° C. for 2 hrs. at 200 rpm. 1 mM IPTG (Wako Pure Chemical Industries, Ltd.) was added and the cells were further cultured for 6 hrs. The culture solution was centrifuged at 8000 rpm for 10 min. and bacterial cells were recovered, washed with PBS and frozen at −80° C. The cells were suspended in 20 ml of lysis buffer (B-PER bacterial protein extraction reagent (Pierce), Protease inhibitor Complete (Boehringer)) and shaken at room temperature for 10 min. After centrifugal separation (14000 rpm, 15 min., 4° C.), and GST-cJUN fused protein was purified from the supernatant using Redipack GST Purification Module (Amersham-Pharmacia Biotech).
(6) Measurement of JNK Inhibitory Activity
A reaction solution (37.5 μl, 25 mM HEPES (pH 7.5), 10 mM magnesium acetate, 1 mM DTT) containing 50 ng of active JNK1 and 1 μg of cJUN […]. The test compound (2.5 μl) was added and the mixture was incubated at 30° C. for 5 min. […] After reacting at 30° C. for 60 min., 50 μl of 20% TCA solution was added to stop the reaction. The reaction solution was left standing at 0° C. for 20 min. and an acid-insoluble fraction was transferred onto a GF/C filter (Packard Japan) using Cell Harvester (Packard Japan), and washed with 250 mM phosphoric acid. After drying at 45° C. for 60 min., 40 μl of Microscint 0 (Packard Japan) was added and the radioactivity was measured on TopCount (Packard Japan).

[2] = biological target: p38α (Homo sapiens, UniProt Q16539); experiment: Inhibitory action on p38α; type: biochemical
Sequence of p38α (Q16539 whole entry): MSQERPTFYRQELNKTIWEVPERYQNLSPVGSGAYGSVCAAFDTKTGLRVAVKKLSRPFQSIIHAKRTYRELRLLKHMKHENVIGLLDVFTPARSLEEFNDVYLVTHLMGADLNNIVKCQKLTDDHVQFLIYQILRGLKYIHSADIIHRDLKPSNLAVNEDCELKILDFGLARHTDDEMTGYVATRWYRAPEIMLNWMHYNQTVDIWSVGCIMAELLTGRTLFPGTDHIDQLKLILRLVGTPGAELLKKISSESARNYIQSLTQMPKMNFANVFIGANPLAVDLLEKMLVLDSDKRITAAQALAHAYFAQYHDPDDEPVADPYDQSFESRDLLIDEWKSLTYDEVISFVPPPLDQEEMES

[3] = biological target: ERK1 (Homo sapiens, UniProt P27361); experiment: Inhibitory action on ERK1; type: biochemical
Sequence of ERK1 (P27361 whole entry): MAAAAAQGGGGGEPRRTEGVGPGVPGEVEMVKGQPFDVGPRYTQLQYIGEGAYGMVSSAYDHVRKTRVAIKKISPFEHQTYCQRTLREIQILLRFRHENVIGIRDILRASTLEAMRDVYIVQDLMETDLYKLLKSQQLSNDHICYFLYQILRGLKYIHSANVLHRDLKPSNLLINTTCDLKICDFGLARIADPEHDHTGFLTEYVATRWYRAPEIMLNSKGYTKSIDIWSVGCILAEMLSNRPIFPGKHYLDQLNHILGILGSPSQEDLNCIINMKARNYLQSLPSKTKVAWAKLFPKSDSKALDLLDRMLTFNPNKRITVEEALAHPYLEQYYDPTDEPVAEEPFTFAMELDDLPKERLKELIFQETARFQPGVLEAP

[4] = test system: Male wistar rats; experiment: Pressure overloaded cardiac hypertrophy induced by an abdominal aortic stenosis (rat); type: in vivo; settings: 10 mg/kg p.o. once a day, day 7 after aortic stenosis
Protocol: Preparation of the Model of Pressure Overloaded Cardiac Hypertrophy Induced by an Abdominal Aortic Stenosis (Rat)
Male wistar rats (body weight 260-300 g, CLEA Japan, Inc) were used. Under xylazine (10 mg/kg, i.p.) and ketamine (50 mg/kg, i.p.) anesthesia, abdominal aorta was exposed by median laparotomy. The left and right renal arteries were detached from the back, a 22G injection needle was put along the artery and it was ligated together with the aorta using a 2-0 silk thread just below the right renal artery. Then, the injection needle was removed to make a stenosis in the abdominal aorta. The abdomen was closed and the rats were housed commonly. For a sham group, the abdomen was closed without ligation (no stenosis) with a silk thread. A compound was suspended in a 0.5% methyl cellulose solution (2 ml/kg) and orally administered at a dose of 10 mg/kg 1 hr. before aortic stenosis and once a day from day 1 (the next day of stricture) to day 7 after operation. Vehicle (0.5% methyl cellulose solution) was administered instead of the compound to the sham group and control group. At day 7 after the preparation of aortic stenosis, the body weight was measured, and the heart was removed and then extracted under pentobarbital (50 mg/kg, i.p.) anesthesia. The right and left artium and right ventricle were excised from the heart and the wet weight of the left ventricle was measured. The left ventricle weight to body weight ratio of each rat was calculated and an increase from the average value of the sham group was calculated. Inhibitory rate of each group to a cardiac hypertrophy was calculated based on the control group as 100%.

Structure (SMILES) | IC50 [1] | inhibition at 10 µM [2] | inhibition at 10 µM [3] | Inhibitory rate (cardiac hypertrophy, control group as 100%) [4] | Left ventricular weight/body weight ratio (mg/g) amount of increase from sham group [4] | Left ventricular weight/body weight ratio (mg/g) value [4]
COC(=O)c1c(-c2ccccc2)c2cc(Br)ccc2c(=O)n1Cc1ccc(S(N)(=O)=O)cc1 [Example 93, 6-bromo-1-oxo-4-phenyl-2-(4-sulfamoylbenzyl)-1,2-dihydroisoquinoline-3-carboxylic acid methyl ester] | 14 nM | 20% | 0% |  |  | 
COC(=O)c1c(-c2ccccc2)c2cc(Br)ccc2c(=O)n1Cc1ccc(S(C)(=O)=O)cc1 [Example 94, 6-bromo-2-(4-methanesulfonylbenzyl)-1-oxo-4-phenyl-1,2-dihydroisoquinoline-3-carboxylic acid methyl ester] |  | 2% | 0% | rate 40%) |  | 
CCCC(=O)c1c(-c2ccccc2)c2cc(Cl)ccc2c(=O)n1Cc1ccc(S(N)(=O)=O)cc1 [Example 455, 4-(6-chloro-3-butyryl-1-oxo-4-phenyl-1H-isoquinolin-2-ylmethyl)benzenesulfonamide] | 34 nM | 0% | 0% |  |  | 
COC(=O)c1c(-c2ccccc2)c2cc(Br)ccc2c(=O)n1Cc1ccc(C(=O)NCCN2CCCC2)cc1 [Example 141, 6-bromo-1-oxo-4-phenyl-2-[4-(2-(pyrrolidin-1-yl)ethylcarbamoyl)benzyl]-1,2-dihydroisoquinoline-3-carboxylic acid methyl ester] | 37 nM | 10% | 4% |  |  | 
CCC(=O)c1c(-c2ccccc2)c2cc(Br)ccc2c(=O)n1Cc1ccc(-c2nnn[nH]2)cc1 [Example 495, 6-bromo-4-phenyl-3-propionyl-2-[4-(1H-tetrazol-5-yl)benzyl]-2H-isoquinolin-1-one] | 6.7 nM | 0% | 37% |  |  | 
COC(=O)c1c(-c2ccccc2)c2cc(Br)ccc2c(=O)n1Cc1ccc(NC(=O)CCC(=O)O)cc1 [Example 122, 6-bromo-2-[4-(3-carboxypropionylamino)benzyl]-1-oxo-4-phenyl-1,2-dihydroisoquinoline-3-carboxylic acid methyl ester] | 9.2 nM | 0% | 0% |  |  | 
CCN(CC)NC(=O)c1ccc(Cn2c(C(=O)OC)c(-c3ccccc3)c3cc(Br)ccc3c2=O)cc1 [Example 356, 6-bromo-2-[4-(N′,N′-diethylhydrazinocarbonyl)benzyl]-1-oxo-4-phenyl-1,2-dihydroisoquinoline-3-carboxylic acid methyl ester] | 7.5 nM | 0% | 0% |  |  | 
CC(=O)c1c(-c2ccccc2)c2cc(Br)ccc2c(=O)n1Cc1ccc(S(N)(=O)=O)cc1 [Example 415, 3-acetyl-6-bromo-4-phenyl-2-(4-sulfamoylbenzyl)-2H-isoquinolin-1-one] | 39 nM | 0% | 0% |  |  | 
CCC(=O)c1c(-c2ccccc2)c2cc(Br)ccc2c(=O)n1Cc1ccc(S(C)(=O)=O)cc1 [Example 315, 6-bromo-2-(4-methanesulfonylbenzyl)-4-phenyl-3-propionyl-2H-isoquinolin-1-one] | 46 nM | 0% | 1% | rate 44%) | 0.29 ± 0.05 (Inhibitory mg/g | 2.19 ± 0.05 mg/g
CCC(=O)c1c(-c2ccccc2)c2cc(Cl)ccc2c(=O)n1Cc1ccc(C(=O)O)cc1 [Example 463, 4-(6-chloro-1-oxo-4-phenyl-3-propionyl-1H-isoquinolin-2-ylmethyl)benzoic acid] | 16 nM | 0% | 22% |  |  | 
COC(=O)c1c(-c2ccccc2)c2cc(N)ccc2c(=O)n1Cc1ccc2c(c1)OCO2 [Example 156, 6-amino-2-(benzo[1,3]dioxol-5-ylmethyl)-1-oxo-4-phenyl-1,2-dihydroisoquinoline-3-carboxylic acid methyl ester] | 28 nM | 10% | 16% |  |  | 
CCC(=O)c1c(-c2ccccc2)c2cc(Br)ccc2c(=O)n1Cc1ccc(C(=O)O)cc1 [Example 462, 4-(6-bromo-1-oxo-4-phenyl-3-propionyl-1H-isoquinolin-2-ylmethyl)benzoic acid] | 9.1 nM | 0% | 13% |  |  | 
COC(=O)c1c(-c2ccccc2)c2cc(Br)ccc2c(=O)n1CC1CCN(C(C)=O)CC1 [Example 112, 2-(1-acetylpiperidin-4-ylmethyl)-6-bromo-1-oxo-4-phenyl-1,2-dihydroisoquinoline-3-carboxylic acid methyl ester] | 3000 nM | 0% | 0.095% |  |  | 
COC(=O)c1c(-c2ccccc2)c2cc(Br)ccc2c(=O)n1Cc1ccc(C(=O)O)cc1 [Example 102, 6-bromo-2-(4-carboxybenzyl)-1-oxo-4-phenyl-1,2-dihydroisoquinoline-3-carboxylic acid methyl ester] | 20 nM | 0% | 0% |  |  | 
C/C(N)=C/C(=O)c1c(-c2ccccc2)c2cc(Br)ccc2c(=O)n1Cc1ccc(S(C)(=O)=O)cc1 [Example 546, 3-[(2Z)-3-aminobut-2-enoyl]-6-bromo-2-(4-methanesulfonylbenzyl)-4-phenyl-2H-isoquinolin-1-one] | 32 nM | 0% | 5% |  |  | 
COC(=O)c1c(-c2ccccc2)c2cc(Br)ccc2c(=O)n1Cc1ccc2c(c1)OCO2 [Example 24, 2-(benzo[1,3]dioxol-5-ylmethyl)-6-bromo-1-oxo-4-phenyl-1,2-dihydroisoquinoline-3-carboxylic acid methyl ester] | 18 nM | 18% | 39% |  |  | 
